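Results reflect a 48-hour exposure of cells in 96-well plates to compound at five concentrations. GI50 marks 50% less growth. TGI is the concentration that stops growth completely.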

Among the test systems are NCI-H23 lung; MALME-3M melanoma; OVCAR-8 ovarian; SN12C renal; OVCAR-4 ovarian; NCI-H226 lung; UACC-62 melanoma; HCC-2998 colon; BT-549 breast; MDA-MB-231 breast.
What all share (test): NCI anticancer screen, dose series, 48 h

For `CC(CN)[C@@H]1CC[C@]2(CO)CC[C@]3(C)[C@H](CC[C@@H]4[C@@]5(C)CCC(NCCO)C(C)(C)[C@@H]5CC[C@]43C)[C@@H]12` (stereo not given in full), the GI50 was 2.29 µM with NCI-H23 lung; 1.62 µM in the assay with MALME-3M melanoma; 1.69 µM with OVCAR-8 ovarian; 1.94 µM in the assay on SN12C renal; 2.7 µM in the assay with OVCAR-4 ovarian; 3.94 µM in the assay with NCI-H226 lung. The GI50 was 1.8 µM with UACC-62 melanoma, 1.89 µM in the assay with HCC-2998 colon, 3.77 µM in the assay on BT-549 breast and 1.38 µM with MDA-MB-231 breast. In addition, the TGI was 5.47 µM with NCI-H23 lung; 3.16 µM with MALME-3M melanoma; 3.28 µM in the assay with OVCAR-8 ovarian; 3.61 µM in the assay on SN12C renal; 9.09 µM in the assay on OVCAR-4 ovarian; 17.5 µM with NCI-H226 lung. Besides, the TGI with UACC-62 melanoma came out at 3.37 µM; in the assay on HCC-2998 colon it was 3.57 µM; in the assay with BT-549 breast, 16.3 µM; in the assay on MDA-MB-231 breast, 2.86 µM.

Regarding `CC(C)(C)OC(=O)NCCCCCCCCn1c2c(c3ccccc3c1=O)C(=O)c1ccccc1-2`, the GI50 in the assay on NCI-H23 lung was 20.4 µM; with MALME-3M melanoma it was above 15.9 µM; in the assay on OVCAR-8 ovarian it was 33.9 µM; with SN12C renal, above 50 µM; in the assay with OVCAR-4 ovarian, above 50 µM; in the assay with NCI-H226 lung, 22.3 µM. Further, the GI50 in the assay with UACC-62 melanoma was 20.3 µM; in the assay on HCC-2998 colon, above 50 µM; in the assay with BT-549 breast, 15.6 µM; with MDA-MB-231 breast, 13.5 µM. Moreover, the TGI was above 50 µM with NCI-H23 lung; above 43.7 µM in the assay on MALME-3M melanoma; above 50 µM in the assay with OVCAR-8 ovarian; above 50 µM in the assay on SN12C renal; above 50 µM in the assay on OVCAR-4 ovarian; above 50 µM in the assay with NCI-H226 lung. Further, the TGI with UACC-62 melanoma was above 50 µM; in the assay on HCC-2998 colon, above 50 µM; in the assay on BT-549 breast, above 50 µM; in the assay with MDA-MB-231 breast, above 47.5 µM.

As for `C/C=C(\C)C(=O)O[C@@H]1C(O)[C@H]2OC(COC(=O)CCC(=O)CCCCCC[C@H](CCCCC)O[C@@H]3OC(C)[C@H](OC(C)=O)C(O)[C@H]3O2)[C@H]1OC(=O)/C=C/c1ccccc1` (stereo not given in full), the GI50 with NCI-H23 lung is 0.293 µM; in the assay with MALME-3M melanoma, 0.0558 µM; in the assay with OVCAR-8 ovarian, below 0.0341 µM; with SN12C renal, 0.0101 µM; in the assay with OVCAR-4 ovarian it was 1.74 µM; with NCI-H226 lung, 0.0643 µM. The GI50 in the assay on UACC-62 melanoma is 0.0176 µM; in the assay on HCC-2998 colon, 1.79 µM; with BT-549 breast, 0.019 µM; in the assay on MDA-MB-231 breast, below 0.01 µM. The TGI is 62.3 µM with NCI-H23 lung; 6.48 µM in the assay with MALME-3M melanoma; above 51.4 µM in the assay with OVCAR-8 ovarian; 24.1 µM in the assay on SN12C renal; 42.5 µM with OVCAR-4 ovarian; 7.38 µM with NCI-H226 lung. The TGI in the assay with UACC-62 melanoma was 1.01 µM; in the assay on HCC-2998 colon, above 100 µM; with BT-549 breast, 13.8 µM; in the assay on MDA-MB-231 breast it was below 0.0114 µM.

In the case of `Cc1cc(=O)oc2cc(OC(=O)Nc3ccc(Cl)c(Cl)c3)ccc12`, the TGI in the assay on NCI-H23 lung was 53 µM; in the assay with MALME-3M melanoma, 51.8 µM; with OVCAR-8 ovarian, 54.8 µM; with SN12C renal, 70.9 µM; with OVCAR-4 ovarian, above 100 µM; in the assay on NCI-H226 lung, 46.6 µM. Also, the TGI in the assay with UACC-62 melanoma turned out to be 35.1 µM; with HCC-2998 colon it was 41 µM; with BT-549 breast, 61.5 µM; in the assay on MDA-MB-231 breast it was 58 µM.

As for `C=C1C(=O)O[C@H]2[C@H]1CC/C(COC(=O)C(=O)c1c[nH]c3ccc(OC)cc13)=C\CC[C@@]1(C)O[C@@H]21`, the GI50 in the assay with NCI-H23 lung is 7.01 µM; in the assay on MALME-3M melanoma, 6.43 µM; with OVCAR-8 ovarian, 6.88 µM; in the assay on SN12C renal, 6.1 µM; in the assay with OVCAR-4 ovarian, 6.93 µM; with NCI-H226 lung, 5.84 µM. For the same molecule, the GI50 in the assay with UACC-62 melanoma was 3.21 µM; in the assay with HCC-2998 colon, 6.29 µM; in the assay on BT-549 breast, 1.82 µM; in the assay with MDA-MB-231 breast, 6.27 µM. Also, the TGI with NCI-H23 lung was found to be 13.8 µM; in the assay with MALME-3M melanoma it was 11 µM; in the assay on OVCAR-8 ovarian, 19.4 µM; in the assay with SN12C renal, 12.2 µM; in the assay on OVCAR-4 ovarian it was 21.4 µM; in the assay on NCI-H226 lung it was 9.99 µM. In addition, the TGI in the assay with UACC-62 melanoma is 7.49 µM; in the assay on HCC-2998 colon it was 9.82 µM; in the assay on BT-549 breast, 3.53 µM; in the assay with MDA-MB-231 breast, 12 µM.

Regarding `O=C(Oc1ccc([N+](=O)[O-])cc1)N1CCN(Cc2cccc(Oc3ccccc3)c2)CC1`, the GI50 in the assay on NCI-H23 lung was above 71.9 µM; in the assay on MALME-3M melanoma, above 95.3 µM; in the assay on OVCAR-8 ovarian it was above 100 µM; in the assay on SN12C renal it was above 100 µM; with OVCAR-4 ovarian, above 44.8 µM; with NCI-H226 lung, above 100 µM. The GI50 with UACC-62 melanoma is 13.6 µM; in the assay on HCC-2998 colon it was above 100 µM; in the assay with BT-549 breast, 52 µM; with MDA-MB-231 breast, above 100 µM. The TGI with NCI-H23 lung, with MALME-3M melanoma, in the assay on OVCAR-8 ovarian, with SN12C renal, in the assay on OVCAR-4 ovarian and with NCI-H226 lung was above 100 µM in each case. The TGI with UACC-62 melanoma, in the assay on HCC-2998 colon, in the assay on BT-549 breast and in the assay with MDA-MB-231 breast was above 100 µM in each case.

For the molecule `CN(C)CCNC(=O)c1cccc2cc3ccccc3nc12`, the GI50 in the assay with NCI-H23 lung was 1.8 µM; with MALME-3M melanoma it was 1.4 µM; in the assay with OVCAR-8 ovarian, 0.62 µM; with SN12C renal, 1.84 µM; in the assay on OVCAR-4 ovarian, 2.11 µM; with NCI-H226 lung it was 0.961 µM. Also, the GI50 is 1.42 µM with UACC-62 melanoma, 1.63 µM with HCC-2998 colon, 2.41 µM with BT-549 breast and 2.35 µM in the assay with MDA-MB-231 breast. Also, the TGI in the assay on NCI-H23 lung is 5.13 µM; in the assay on MALME-3M melanoma it was 3.34 µM; in the assay with OVCAR-8 ovarian it was 7.73 µM; in the assay with SN12C renal, above 19.9 µM; in the assay with OVCAR-4 ovarian, 4.99 µM; with NCI-H226 lung it was 3.85 µM. Moreover, the TGI turned out to be 3.25 µM in the assay on UACC-62 melanoma, 5.9 µM in the assay with HCC-2998 colon, 10.8 µM in the assay on BT-549 breast and 9.65 µM with MDA-MB-231 breast.

`Nc1ccn([C@H]2C[C@@H](O)[C@@H](CO)S2)c(=O)n1`: the GI50 with NCI-H23 lung is above 100 µM; in the assay on MALME-3M melanoma it was above 100 µM; with OVCAR-8 ovarian it was 11.2 µM; in the assay on SN12C renal it was above 44.7 µM; in the assay with OVCAR-4 ovarian, above 100 µM; in the assay with NCI-H226 lung, above 100 µM. Besides, the GI50 in the assay on UACC-62 melanoma, with HCC-2998 colon, with BT-549 breast and with MDA-MB-231 breast was above 100 µM each time. For the same molecule, the TGI with NCI-H23 lung, in the assay on MALME-3M melanoma, in the assay with OVCAR-8 ovarian, in the assay with SN12C renal, in the assay with OVCAR-4 ovarian and in the assay with NCI-H226 lung was above 100 µM in each case. Further, the TGI in the assay with UACC-62 melanoma, in the assay with HCC-2998 colon, in the assay with BT-549 breast and in the assay on MDA-MB-231 breast was above 100 µM throughout.
